Measured values from ChEMBL document CHEMBL2057075, “Guanacastane-type diterpenoids with cytotoxic activity from Coprinus plicatilis” (Bioorg Med Chem Lett, 2012).
pIC50: −log10 of the molar value. Activity calls are given as the source filed them. The rule behind the calls is not given here.

Columns and labels:
[1] = tested on: HepG2; experiment: Growth inhibition of human HepG2 cells at 20 uM after 72 hrs by MTT assay; assay type: functional, cell-based
[2] = tested on: U2OS; experiment: Cytotoxicity against human U2OS cells after 72 hrs by MTT assay; assay type: functional, cell-based
[3] = tested on: BGC-823; experiment: Cytotoxicity against human BGC823 cells after 72 hrs by MTT assay; assay type: functional, cell-based; conditions: BGC-823, 72 h
[4] = tested on: HepG2; experiment: cells; conditions: Homo sapiens, HepG2, 72 h
Description: Cytotoxicity against human HepG2 cells after 72 hrs by MTT assay

[5] = tested on: HeLa; experiment: cells; conditions: Homo sapiens, 72 h
Description: Cytotoxicity against human HeLa cells after 72 hrs by MTT assay

[6] = tested on: HCT-116; experiment: cells; conditions: Homo sapiens, HCT-116, 72 h
[7] = tested on: MDA-MB-231; experiment: cells; conditions: Homo sapiens, MDA-MB-231, 72 h
Description: Cytotoxicity against human MDA-MB-231 cells after 72 hrs by MTT assay

| SMILES | pIC50 [4] | pIC50 [5] | pIC50 [6] | pIC50 [7] | growth inhibition (GI) [1] | pIC50 [2] | pIC50 [3] |
| --- | --- | --- | --- | --- | --- | --- | --- |
| CC(=O)O[C@H]1C(=O)[C@@H]2[C@H]3OCC4=C3[C@@](C)(CC[C@@H]4O)CC[C@]2(C)[C@H]1C(C)C | – | – | – | – | inactive | – | – |
| CC(C)[C@H]1C(=O)CC2=C(O)C3=C(CO)[C@@H](O)CC[C@@]3(C)CC[C@@]21C (relative stereo) | 4.59 | < 4.30 | 4.41 | < 4.30 | Active | < 4.30 | < 4.30 |
| CC(C)[C@H]1[C@@H](O)[C@H](O)C2=CC3=C(CO)CCC[C@@]3(C)CC[C@@]21C (relative stereo) | – | – | – | – | inactive | – | – |
| COc1cccc2c1C(=O)c1c(O)c3c(c(O)c1C2=O)C[C@@](O)(C(=O)CO)C[C@@H]3O[C@H]1C[C@H](N)[C@H](O)[C@H](C)O1 [DOXORUBICIN] | 6.15 | 6.22 | 6.52 | – | – | 5.47 | 6.05 |

Second part, led by results:

| pIC50 [4] | pIC50 [5] | pIC50 [6] | pIC50 [7] | SMILES | growth inhibition (GI) [1] | pIC50 [2] | pIC50 [3] |
| --- | --- | --- | --- | --- | --- | --- | --- |
| 5.64 | 5.30 | 5.92 | 5.22 | CC(C)[C@H]1[C@@H](O)[C@@H](O)C2=C3OC(=O)C4=C3[C@@](C)(CC[C@@H]4O)CC[C@@]21C (relative stereo) | Active | 4.71 | 5.62 |
| 4.77 | < 4.30 | 4.70 | 4.46 | CC(C)[C@H]1[C@@H](O)C(=O)[C@@]2(O)[C@H]3OCC4=C3[C@@](C)(CC[C@@H]4O)CC[C@]12C (relative stereo) | Active | 4.40 | 4.45 |
